Tests used:
[1] = pKa (titrated); assay type: physicochemical
Protocol: As expected, solubility improves with ionization. However, even when essentially all of the compound carries a +1 charge, the aqueous solubility remains poor, e.g., at pH 4 the solubility is <2 μg/mL. Similarly, at pH 2 the average charge will be +2 but, the solubility for this strongly charged compound is only 1 mg/mL. Based on the pKa values, under still more acidic conditions this compound will have an average charge of +3 and the solubility might be expected to increase further. However, no further increase in solubility has been achieved, i.e., at pH 1.0 (0.1 NHCL) the solubility of this compound decreases to <1 mg/mL. This type of decrease in solubility is consistent with the formation of insoluble chloride salts.

[2] = Aqueous solubility (buffers, pH dependence); assay type: physicochemical
Source text: As expected, solubility improves with ionization. […] This type of decrease in solubility is consistent with the formation of insoluble chloride salts. […] However, as shown in the Table 1 below, the A2a receptor antagonist compound described above has both low aqueous and non-aqueous solubility.

[3] = Non-aqueous solubility (ethanol, propylene glycol, soybean oil); assay type: physicochemical
Source text: However, as shown in the Table 1 below, the A2a receptor antagonist compound described above has both low aqueous and non-aqueous solubility.

[4] = Formula 1 concentration in acidified propylene glycol stock solutions and after dilution with deionized water; assay type: physicochemical
Source text: [table] […] In this way, the concentration of propylene glycol was decreased 10 fold from the initial concentration of 86% to a final concentration of 8.6%. […] Similarly, Formula 1 solubility should not be affected by the 2-10× dilution of sodium docusate as this surfactant will still be present at levels above its critical micelle concentration (CMC).

[5] = Extraction of Formula 1 from stock solutions into soybean oil; assay type: physicochemical; conditions: excess Formula 1
[6] = Formula I:docusate complex dissolved in propylene glycol (Example 1); assay type: physicochemical
Protocol: A non-aqueous embodiment of the formulations of the present invention was prepared as set forth by the following procedure. A first solution was prepared by adding 100 mg of the compound of Formula I above to 500 mL of 0.01 NHCL. Next, a second Solution was prepared by adding 20 grams of sodium docusate to 500 mL of 0.01 NHCL. These two solutions were mixed and a complex of the compound of Formula I and docusate sodium was precipitated from solution. The precipitate was thereafter separated by centrifuging the mixture, decanting the supernatant and then drying the residue complex.
The dried residue was then dissolved in a small quantity of propylene glycol and the concentration of the compound of Formula I in this solution was determined to be 2.5 mg/mL.

[7] = Precipitation from acidic aqueous solution in presence of sodium docusate; assay type: physicochemical; conditions: pH 2.0, 0.1 mg/mL aqueous solution
Source text: For aqueous formulations of the present invention, surfactants such sodium docusate are typically added to improve aqueous solubility. However, sodium docusate actually decreases the aqueous solubility of 7-[2-[4-[4-(methoxyethoxy)phenyl]1-piperazinyl]ethyl]-2-(2-furanyl)-7H-pyrazolo[4,3-e]triazolo[1,5-c]pyrimidin-5-amine under acidic conditions. […] More specifically, by “ion-pair” it is meant to mean the non-covalent bonding of two oppositely charged molecules.

[8] = biological target: A2a receptor (Homo sapiens, UniProt P29274); conditions: cited from earlier work
Sequence of A2a receptor (P29274 whole entry): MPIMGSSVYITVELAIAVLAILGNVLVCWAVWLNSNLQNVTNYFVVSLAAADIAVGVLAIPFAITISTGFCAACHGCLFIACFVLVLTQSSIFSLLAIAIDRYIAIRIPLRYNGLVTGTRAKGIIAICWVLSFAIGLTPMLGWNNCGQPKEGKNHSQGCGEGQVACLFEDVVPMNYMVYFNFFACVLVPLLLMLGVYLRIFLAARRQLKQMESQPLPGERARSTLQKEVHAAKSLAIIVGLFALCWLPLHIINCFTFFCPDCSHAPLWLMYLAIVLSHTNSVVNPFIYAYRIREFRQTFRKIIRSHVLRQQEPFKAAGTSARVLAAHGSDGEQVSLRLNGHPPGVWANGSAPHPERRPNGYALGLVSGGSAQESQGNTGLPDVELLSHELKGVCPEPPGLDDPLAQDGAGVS

Structure (SMILES): COCCOc1ccc(N2CCN(CCn3ncc4c3nc(N)n3nc(-c5ccco5)nc43)CC2)cc1 [Formula 1, 7-[2-[4-[4-(methoxyethoxy)phenyl]1-piperazinyl]ethyl]-2-(2-furanyl)-7H-pyrazolo[4,3-e]triazolo[1,5-c]pyrimidin-5-amine]
- pKa [1]: 6.87
- solubility ([2]; 0.1 N HCl, pH 1, simulated gastric fluid, pH 1.0 (0.1 NHCL)): < 1000 µg/mL
- Aqueous Solubility ([2]; Buffer pH 4): 1.7 µg/mL
- solubility ([2]; aqueous buffer, pH 3, aqueous buffer, Buffer pH 3): 105 µg/mL
- solubility ([2]; aqueous buffer, pH 4, aqueous buffer, Buffer pH 4): < 2 µg/mL
- solubility ([2]; aqueous buffer, pH 7.4, aqueous buffer, Buffer pH 7.4): < 0.005 µg/mL
- solubility ([2]; aqueous medium, pH 2, simulated gastric fluid, pH 2): 1000 µg/mL
- Solubility in aqueous media ([2]; neutral pH): virtually insoluble
- solubility ([3]; ethanol, organic solvent or mixture): 100 µg/mL
- solubility ([3]; propylene glycol, organic solvent or mixture, Propylene Glycol (neutral compound)): ~30 µg/mL
- solubility ([3]; soybean oil, oil or lipid): < 70 µg/mL
- Formula 1 concentration, 86% PG/(Stock) ([4]; Stock solution 1: acidified propylene glycol (86% v/v, citric acid/HCl to pH 3.4), undiluted): 9.8 mg/mL
- Formula 1 concentration, 43% PG/DF2 ([4]; Stock solution 1: acidified propylene glycol, diluted with deionized water DF2): 4.6 mg/mL
- Formula 1 concentration, 17% PG/DF4 ([4]; Stock solution 1: acidified propylene glycol, diluted with deionized water DF4): 1.9 mg/mL
- Formula 1 concentration, 8.6% PG/DF10 ([4]; Stock solution 1: acidified propylene glycol, diluted with deionized water DF10): 0.97 mg/mL
- Formula 1 concentration, 86% PG/(Stock) ([4]; Stock solution 2: acidified propylene glycol + 36 mg/mL Tween 80, undiluted): 8.7 mg/mL
- Formula 1 concentration, 43% PG/DF2 ([4]; Stock solution 2: acidified propylene glycol + Tween 80, diluted with deionized water DF2): 4.0 mg/mL
- Formula 1 concentration, 17% PG/DF4 ([4]; Stock solution 2: acidified propylene glycol + Tween 80, diluted with deionized water DF4): 1.8 mg/mL
- Formula 1 concentration, 8.6% PG/DF10 ([4]; Stock solution 2: acidified propylene glycol + Tween 80, diluted with deionized water DF10): 0.78 mg/mL
- Formula 1 concentration, 86% PG/(Stock) ([4]; Stock solution 3: acidified propylene glycol + 61 mg/mL docusate sodium, undiluted): 9.2 mg/mL
- Formula 1 concentration, 43% PG/DF2 ([4]; Stock solution 3: acidified propylene glycol + docusate sodium, diluted with deionized water DF2): 0.14 mg/mL
- Formula 1 concentration, 17% PG/DF4 ([4]; Stock solution 3: acidified propylene glycol + docusate sodium, diluted with deionized water DF4): 0.037 mg/mL
- Formula 1 concentration, 8.6% PG/DF10 ([4]; Stock solution 3: acidified propylene glycol + docusate sodium, diluted with deionized water DF10): 0.011 mg/mL
- Maximum concentration relative to solubility in propylene glycol ([4]; acidified propylene glycol without docusate): 300 times
- Concentration relative to solubility in propylene glycol ([4]; direct addition to acidified propylene glycol and docusate): greater than 300 times
- Concentration in acidified propylene glycol solution ([4]; propylene glycol solution acidified to ionize the active compound): more than 9 mg/mL
- Soybean Oil Amt. Extracted ([5]; extracted from stock solution 1 (acidified propylene glycol)): 0.006 mg/mL
- Soybean Oil Amt. Extracted ([5]; extracted from stock solution 2 (acidified propylene glycol + Tween 80)): 0.007 mg/mL
- Soybean Oil Amt. Extracted ([5]; extracted from stock solution 3 (acidified propylene glycol + docusate sodium)): 0.28 mg/mL
- Solubility relative to compound alone in propylene glycol ([6]; Formula I:docusate complex in propylene glycol): more than 80 fold
- Concentration of the compound of Formula I in propylene glycol solution ([6]; dried Formula I:docusate sodium complex dissolved in propylene glycol): 2.5 mg/mL
- Concentration relative to active compound and propylene glycol only ([6]; formulated with docusate sodium in acidified propylene glycol): 80 times
- Behaviour of solution in presence of sodium docusate [7]: precipitate out of solution
- Potency as an A2a receptor antagonist [8]: considerable potency
